Measurements taken from patent US20200094031A1, “TREATMENT OF A DISEASE OF THE GASTROINTESTINAL TRACT WITH A CHST15 INHIBITOR” (Progenity, Inc., priority 2017, published 2020).
Like-named read-outs stand apart in the source and are kept apart here.

How the values were obtained:
[1] = Tissue, plasma, rectal sample and GI content pharmacokinetics of tacrolimus, oral vs intra-cecal ingestible device (Example 10); parameters: species or system Yorkshire-Cross farm swine; settings: in vivo
Experimental: The primary objective of this study was to compare the tissue, plasma, rectal sample, and GI content pharmacokinetics of tacrolimus through oral versus intra-cecal ingestible device delivery in normal Yorkshire-Cross farm swine.
(§1) No further randomization procedure was employed.
Animals in Group 1 received an ingestible device containing 0.8 mL of vehicle solution (80% alcohol, 20% HCO-60). Animals in Group 2 received orally […] liquid formulation of tacrolimus at 4 mg/0.8 mL per animal (Prograf: 5 mg/mL). Animals in Group 3 received intra-cecally an ingestible device containing tacrolimus at 1 mg in 0.8 mL per ingestible device. Animals in Group 4 received intra-cecally an ingestible device containing tacrolimus at 2 mg in 0.8 mL per ingestible device. Animals in Group 5 received intra-cecally an ingestible device containing tacrolimus at 4 mg in 0.8 mL per ingestible device. To control for potential confounding effects of the surgery, all groups fast on Day −11 at least 24 hr before being subjected to anesthesia followed by surgical placements of a cecal port by a veterinary surgeon at Day −10. All animals were fasted for at least 12 hr prior to dosing on Day 1. Animals were dosed via either intra-cecal dosing (IC) or oral dosing (PO) at Day 1 (between 6-8 p.m.). All animals resumed feeding at approximately 4 hours after dose (11-12 p.m. after dosing).
Animals in Group 1 (Vehicle Control) were administered a single intra-cecal ingestible device containing 0.8 mL Vehicle solution (80% alcohol, 20% castor oil (HCO-60) on Day 1. On Day −10 the animals were anesthetized, and a veterinary surgeon surgically placed an intra-cecal port in each animal. On Day 1, each animal was placed into a sling then a single intra-cecal ingestible device containing 0.8 mL vehicle solution (80% alcohol, 20% castor oil (HCO-60)) is introduced by the veterinary surgeon into the cecum via the cecal port in each animal. Following ingestible device placement, the animals were removed from the slings and placed back into their pens with water. All animals resumed feeding at approximately 4 hours after dose. […] A total of 60 samples were collected.
Approximately 200˜400 mg of rectal content were collected, if available, with a fecal swab (Copan Diagnostics Nylon Flocked Dry Swabs, 502CS01). The fecal swab was pre-weighed and weighed after collection in the collection tube (Sterile Tube and Cap No Media, PFPM913S), and the sample weight was recorded. The fecal swab was broken via the breakpoint, and was stored in the collection tube, and immediately frozen at −70° C. […] Immediately following euthanasia, tissue was collected.
For tissue necropsy, small intestine fluid and cecal fluid were collected separately from all the animals into two separate square plastic bottles, and stored at −20° C. The length and diameter of the cecum and the colon was measured from one animal in each group and recorded for reference. Tissues were collected for pharmacokinetic analyses and include mesenteric lymph nodes, a Peyer's Patch, and five gastrointestinal sections, including cecum, proximal colon, transverse colon, distal colon, and rectum. All samples were weighed, and the tissue sample weights were recorded. In each of the five gastrointestinal sections, tissue samples were collected in three different areas where the mucosal surface was visible and not covered by luminal content by using an 8.0-mm punch biopsy tool. Around 3 grams of the total punched sample were collected into a pre-weighed 15-mL conical tube, and the tissue weight was recorded. Three mesenteric lymph nodes were collected from different areas and weighed. At least one Peyer's Patch was collected and weighed.
Luminal contents were collected for pharmacokinetic analyses from the surface of the tissue from each of five gastrointestinal sections: cecum, proximal colon, transverse colon, distal colon, and rectum (total of 75). […]

[2] = Blood pharmacokinetics of oral vs intra-cecal tacrolimus (Example 13); parameters: species or system Yorkshire-Cross farm swine; settings: in vivo; for concentration at 12 hr: Trough (12 hr)
From the text: as §1

[3] = Tacrolimus concentration in gastrointestinal tissue, luminal content and rectal contents, and tissue/plasma ratios (Example 13); assay type: in vivo, Yorkshire-Cross farm swine; settings: female, Yorkshire-Cross, pig; for concentration at 12 hr: other: intra-cecal device; for concentration at 12 hr / concentration at 12 h: 12 hr post dose
Experimental: The primary objective of this study was to study the pharmacokinetics of oral versus intra-cecal administration of tacrolimus in normal Yorkshire-Cross farm swine.
This study compares the effects of administration of: a single intra-cecal administration of a device containing 0.8 mL sterile vehicle solution (80% alcohol, 20% castor oil (HCO-60)); a single oral dose of tacrolimus at 0.09 mg/kg (in sterile vehicle solution); and a single intra-cecal administration of a device containing either 0.02 mg/kg (in sterile vehicle solution), 0.04 mg/kg (in sterile vehicle solution), or 0.09 mg/kg (in sterile vehicle solution).
This study employed five groups of three female swine weighing approximately 45 to 50 kg at study start. Swine were randomly placed into animal rooms/pens as they are transferred from the delivery vehicle without regard to group. Group numbers were assigned to the rooms in order of room number. No further randomization procedure was employed.
Animals in Group 1 received intra-cecally a device containing a vehicle solution (80% alcohol, 20% HCO-60). Animals in Group 2 received orally a liquid formulation of tacrolimus at 0.09 mg/kg per animal. Animals in Group 3 received intra-cecally a device containing tacrolimus at 0.02 mg/kg per device. Animals in Group 4 received intra-cecally a device containing tacrolimus 0.04 mg/kg per device. Animals in Group 5 received intra-cecally a device containing tacrolimus 0.09 mg/kg per device.

[4] = female, Yorkshire-Cross, pig, 0.02 mg/kg
[5] = female, Yorkshire-Cross, pig, 0.04 mg/kg
[6] = female, Yorkshire-Cross, pig, 0.09 mg/kg

## C=CC[C@@H]1/C=C(\C)C[C@H](C)C[C@H](OC)[C@H]2O[C@@](O)(C(=O)C(=O)N3CCCC[C@H]3C(=O)O[C@H](/C(C)=C/[C@@H]3CC[C@@H](O)[C@H](OC)C3)[C@H](C)[C@@H](O)CC1=O)[C@H](C)C[C@@H]2OC [tacrolimus]
[1]
  exposure AUC: < 2000-12 ng·h/mL
  luminal content (spiral, transverse, and distal colon) concentrations: Significantly higher
  mean concentration of tacrolimus in the cecum tissue and the proximate colon tissue: higher
  tissue (spiral and transverse colon) concentrations: Significantly higher
[1]; po
  level of tacrolimus in tissue: No measurable level
  rectal content concentration: no detectable level
[2]; [4]
  AUC(0-t): 15.3 ± 2.36 ng·h/mL
  Cmax: 2.39 ± 0.57 ng/mL
  concentration at 12 hr: 0.746 ± 0.038 ng/mL
[2]; [5]
  AUC(0-t): 51.4 ± 4.04 ng·h/mL
  Cmax: 9.2 ± 3.3 ng/mL
  concentration at 12 hr: 1.96 ± 0.491 ng/mL
[2]; [6]
  AUC(0-t): 130 ± 7.83 ng·h/mL
  Cmax: 21.8 ± 4.73 ng/mL
  concentration at 12 hr: 4.35 ± 0.561 ng/mL
[2]; female, Yorkshire-Cross, pig, po, 0.09 mg/kg
  concentration at 12 hr: 0.568 ± 0.291 ng/mL
[2]; female, Yorkshire-Cross, pig, po, 0.09 mg/kg, Trough level (12 hr)
  concentration at 12 h: 0.568 ng/mL
[2]; po, 0.09 mg/kg
  mean concentration and AUC0-12 hours of tacrolimus in the blood: higher
[3]; cecum tissue, other: intra-cecal, 0.04 mg/kg, cecum, Group 4 IC (0.04 mg/kg), swine, read-out: Ratio Tissue (mean) (ng/g)/Trough(12 hr) (ng/ml)
  Kp at 12 h: 26.7
[3]; cecum tissue, other: intra-cecal, 0.09 mg/kg, cecum, Group 5 IC (0.09 mg/kg), swine, read-out: Ratio Tissue (mean) (ng/g)/Trough(12 hr) (ng/ml)
  Kp at 12 h: 17.8
[3]; distal colon tissue, other: intra-cecal, 0.02 mg/kg, distal colon, Group 3 IC (0.02 mg/kg), swine, read-out: Ratio Tissue (mean) (ng/g)/Trough(12 hr) (ng/ml)
  Kp at 12 h: 59.9
[3]; distal colon tissue, other: intra-cecal, 0.04 mg/kg, distal colon, Group 4 IC (0.04 mg/kg), swine, read-out: Ratio Tissue (mean) (ng/g)/Trough(12 hr) (ng/ml)
  Kp at 12 h: 14.6
[3]; distal colon tissue, other: intra-cecal, 0.09 mg/kg, distal colon, Group 5 IC (0.09 mg/kg), swine, read-out: Ratio Tissue (mean) (ng/g)/Trough(12 hr) (ng/ml)
  Kp at 12 h: 15.6
[3]; in vivo, po, 0.09 mg/kg, 12 h
  Ratio Tissue (mean) (ng/g)/AUG(0-12 hr) (ng · hr/ml): 0
  Ratio Tissue (mean) (ng/g)/Trough(12 hr) (ng/ml): 0
[3]; in vivo, po, 0.09 mg/kg, Ratio Tissue (mean) (ng/g)/AUG(0-12 hr) (ng · hr/ml)
  Kp at 12 h: 0
[3]; in vivo, po, 0.09 mg/kg, Ratio Tissue (mean) (ng/g)/Trough(12 hr) (ng/ml)
  Kp at 12 h: 0
[3]; distal colon tissue, Group 3 IC (0.02 mg/kg), swine
  concentration at 12 hr: 44.7 ng/g
[3]; proximal colon tissue, Group 3 IC (0.02 mg/kg), swine
  concentration at 12 hr: 50.2 ng/g
[3]; spiral colon tissue, Group 3 IC (0.02 mg/kg), swine
  concentration at 12 hr: 204 ng/g
[3]; spiral colon tissue, Group 4 IC (0.04 mg/kg), swine
  concentration at 12 hr: 342 ng/g
[3]; spiral colon tissue, Group 5 IC (0.09 mg/kg), swine
  concentration at 12 hr: 783 ng/g
[3]; transverse colon tissue, Group 3 IC (0.02 mg/kg), swine
  concentration at 12 hr: 128 ng/g
[3]; transverse colon tissue, Group 4 IC (0.04 mg/kg), swine
  concentration at 12 hr: 85.8 ng/g
[3]; transverse colon tissue, Group 5 IC (0.09 mg/kg), swine
  concentration at 12 hr: 272 ng/g
[3]; other: intra-cecal, cecum tissue, Group 4 IC (0.04 mg/kg), swine
  concentration at 12 h: 52.3 ng/g
[3]; other: intra-cecal, cecum tissue, Group 5 IC (0.09 mg/kg), swine
  concentration at 12 h: 77.3 ng/g
[3]; other: intra-cecal, distal colon tissue, Group 4 IC (0.04 mg/kg), swine
  concentration at 12 h: 28.7 ng/g
[3]; other: intra-cecal, distal colon tissue, Group 5 IC (0.09 mg/kg), swine
  concentration at 12 h: 67.7 ng/g
[3]; other: intra-cecal, proximal colon tissue, Group 4 IC (0.04 mg/kg), swine
  concentration at 12 h: 98.3 ng/g
[3]; other: intra-cecal, proximal colon tissue, Group 5 IC (0.09 mg/kg), swine
  concentration at 12 h: 157 ng/g
[3]; proximal colon tissue, other: intra-cecal, 0.02 mg/kg, proximal colon, Group 3 IC (0.02 mg/kg), swine, read-out: Ratio Tissue (mean) (ng/g)/Trough(12 hr) (ng/ml)
  Kp at 12 h: 67.3
[3]; proximal colon tissue, other: intra-cecal, 0.04 mg/kg, proximal colon, Group 4 IC (0.04 mg/kg), swine, read-out: Ratio Tissue (mean) (ng/g)/Trough(12 hr) (ng/ml)
  Kp at 12 h: 50.1
[3]; proximal colon tissue, other: intra-cecal, 0.09 mg/kg, proximal colon, Group 5 IC (0.09 mg/kg), swine, read-out: Ratio Tissue (mean) (ng/g)/Trough(12 hr) (ng/ml)
  Kp at 12 h: 36.1
[3]; spiral colon tissue, other: intra-cecal, 0.02 mg/kg, spiral colon, Group 3 IC (0.02 mg/kg), swine, read-out: Ratio Tissue (mean) (ng/g)/Trough(12 hr) (ng/ml)
  Kp at 12 h: 273
[3]; spiral colon tissue, other: intra-cecal, 0.04 mg/kg, spiral colon, Group 4 IC (0.04 mg/kg), swine, read-out: Ratio Tissue (mean) (ng/g)/Trough(12 hr) (ng/ml)
  Kp at 12 h: 175
[3]; spiral colon tissue, other: intra-cecal, 0.09 mg/kg, spiral colon, Group 5 IC (0.09 mg/kg), swine, read-out: Ratio Tissue (mean) (ng/g)/Trough(12 hr) (ng/ml)
  Kp at 12 h: 180
[3]; transverse colon tissue, other: intra-cecal, 0.02 mg/kg, transverse colon, Group 3 IC (0.02 mg/kg), swine, read-out: Ratio Tissue (mean) (ng/g)/Trough(12 hr) (ng/ml)
  Kp at 12 h: 172
[3]; transverse colon tissue, other: intra-cecal, 0.04 mg/kg, transverse colon, Group 4 IC (0.04 mg/kg), swine, read-out: Ratio Tissue (mean) (ng/g)/Trough(12 hr) (ng/ml)
  Kp at 12 h: 43.8
[3]; transverse colon tissue, other: intra-cecal, 0.09 mg/kg, transverse colon, Group 5 IC (0.09 mg/kg), swine, read-out: Ratio Tissue (mean) (ng/g)/Trough(12 hr) (ng/ml)
  Kp at 12 h: 62.5
